Data taken from EPA's ToxValDB 9.5 (doi:10.2903/j.efsa.2005.29r).
Several values for one entry are separate records, joined by “and”; a condition that tells them apart may be missing. Equal values may be shown once.

Legend:
Oncorhynchus mykiss = conditions: for NOEC: chronic/long-term
Apis mellifera = conditions: acute, mortality
Canidae = conditions: subchronic; duration: 90 days; oral; Dog Other; clinical signs
Aphidius rhopalosiphi = conditions: not reported; mortality
Oryctolagus sp. = conditions: developmental; development
Daphnia magna = conditions: chronic/long-term
Coturnix coturnix = conditions: oral
Typhlodromus pyri = assay: LR50; higher = less toxic; conditions: chronic/long-term; duration: 7 days; mortality

With `Cc1ccc(N(SC(F)(Cl)Cl)S(=O)(=O)N(C)C)cc1` [Tolylfluanid] the LC50 (Oncorhynchus mykiss; acute, duration: 96 hours, mortality) was 0.045 µg/mL and 0.016 µg/mL, the NOEC (Oncorhynchus mykiss; duration: 28 days) was 44 µg/L and the NOEC (Oncorhynchus mykiss; duration: 35 days) was 60 µg/L. For the same compound, the LD50 (Apis mellifera; duration: 48 hours, dermal) was > 196 µg/piece, the LD50 (Apis mellifera; oral, unspecified) was > 197 µg/piece and the NOAEL (Canidae) was 33 mg/kg-day. The LC50 (Tagia sp.; acute, duration: 14 days, mortality) was > 1000 mg/kg, the NOEC (Tagia sp.; chronic/long-term, reproduction) was 24000 g/ha and the LD50 (Rattus norvegicus; acute, oral, mortality) was > 5000 mg/kg. The NOAEL (Rattus norvegicus; reproduction developmental, M, body weight) was 12 mg/kg-day, the NOEC (Rattus norvegicus; short-term, duration: 28 days, oral, diet) was 1500 mg/kg-day and the LEL (Aphidius rhopalosiphi) was 2500 g/ha. The NOAEL (Oryctolagus sp.) was 25 mg/kg-day, the NOAEC (Daphnia magna; duration: 40 days) was 180 µg/L and the NOAEC (Daphnia magna; duration: 51 days) was 99 µg/L. The LC50 (Coturnix coturnix; acute, duration: 5 days, diet, mortality) was > 5000 mg/kg, the LD50 (Coturnix coturnix; acute, mortality) was > 2000 mg/kg and the NOEC (Coturnix coturnix; reproduction developmental, duration: 21 weeks, diet) was 791 mg/kg-day. It also gave an LR50 (Typhlodromus pyri) of 247 g/ha.
